Assay results taken from paper PMC9317628, “Secondary Metabolites in the Dendrobium heterocarpum Methanolic Extract and Their Impacts on Viability and Lipid Storage of 3T3-L1 Pre-Adipocytes” (Nutrients, 2022).

Legend:
[1] = MTT cytotoxicity assay (cell viability); type: cell-based, mouse; conditions: mouse, 3T3-L1 pre-adipocytes, 20 µM, relative to vehicle control, read-out: percentage of cell viability
Method: (§1) The mouse embryonic 3T3-L1 pre-adipocytes purchased from the American Type Culture Collection (ATCC, Manassas, VA, USA) were cultured at 37 °C with a 5% CO2 stream in a complete Dulbecco’s modified Eagle medium (DMEM) (Gibco, Gaithersburg, MA, USA) that contained 10% fetal bovine serum (FBS; Gibco, Gaithersburg, MA, USA), 1000 units mL^−1 of penicillin/streptomycin (Gibco, Gaithersburg, MA, USA), and 2 mM of L-glutamine (Gibco, Gaithersburg, MA, USA). For adipocyte differentiation, 3T3-L1 cells at 100% confluent were incubated at 37 °C with a 5% CO2 stream for two days in a differentiation medium made of the complete DMEM plus 0.5 mM isobutyl methylxanthine (IBMX) (Sigma Aldrich, St. Louis, MO, USA), 1 µM of dexamethasone (Sigma Aldrich, St. Louis, MO, USA), and 5 µg mL^−1 of insulin (Sigma Aldrich, St. Louis, MO, USA). Then, the medium was replaced with an insulin medium made of the complete DMEM plus 5 µg mL^−1 of insulin, and cells were continuously incubated under the same conditions for another two days. The medium was replaced with the complete DMEM every two days to maintain adipocyte development. Cellular lipid droplets developed along the differentiation program could be observed under a light microscope (Nikon Ts2, Tokyo, Japan). The cytotoxic effect of elucidated compounds from D. heterocarpum on 3T3-L1 cell viability was evaluated using 3-(4,5-dimethylthiazol-2-yl)-2,5-diphenyl tetrazolium bromide (MTT) (Sigma Aldrich, St. Louis, MO, USA) assay. 3T3-L1 cells were seeded in 96-well plates at a density of 2 × 10^3 cells/well and incubated at 37 °C with a 5% CO2 stream until reaching 100% confluent. Cells were then exposed to varying concentrations (5, 10, and 20 µM) of the tested compounds in the complete DMEM for 48 h. Before testing, every tested compound resuspended in absolute dimethyl sulfoxide (DMSO) (Sigma Aldrich, St. Louis, MO, USA) was prepared by dilution using the complete DMEM. The concentration of DMSO in each treatment was limited to <0.5% (v/v). DMSO at 0.5% (v/v) and 20 µM of oxyresveratrol (a known compound with the ability to suppress adipocyte differentiation) were included in the tests as untreated vehicle and positive controls, respectively. After exposure for 48 h, the medium was removed, and the MTT solution (0.45 mg mL^−1), prepared by dissolving in phosphate-buffered saline (PBS), was added. The assay was incubated at 37 °C with a 5% CO2 stream for 3 h. Then, the MTT solution was replaced with absolute DMSO to dissolve the purple formazan crystal that formed, which was further measured for absorbance at a 570 nm wavelength using a microplate reader (Anthros, Durham, NC, USA). The relative absorbance value between treated cells to vehicle control cells was presented as the percentage of cell viability. Non-cytotoxic concentrations of a tested compound were defined based on no significant difference in the percentages of cell viability derived from the treatments and the vehicle control.

3T3-L1 pre-adipocytes = assay: MTT cytotoxicity assay (cell viability); type: cell-based, mouse; conditions: 48 h; for cytotoxic effect (cell viability vs untreated vehicle control): 5 µM (lowest tested concentration); for non-cytotoxic concentrations: no significant difference from vehicle control
Method: as §1

α-glucosidase = conditions: cited from earlier work
pancreatic lipase = conditions: cited from earlier work
3T3-L1 cells [2] = assay: Oil Red O staining, cellular lipid content in differentiating cells; type: cell-based, mouse; conditions: for effect on cellular lipid storage (percentage of Oil Red O-stained cells): 5 µM, 48 h exposure, staining on day 8, vs untreated vehicle control; for IC50: Mus musculus, 3T3-L1, based on percentage of Oil Red O-stained, read-out: IC50 to suppress cellular lipid accumulation
Method: The mouse embryonic 3T3-L1 pre-adipocytes purchased from the American Type Culture Collection (ATCC, Manassas, VA, USA) were cultured at 37 °C with a 5% CO2 stream in a complete Dulbecco’s modified Eagle medium (DMEM) (Gibco, Gaithersburg, MA, USA) that contained 10% fetal bovine serum (FBS; Gibco, Gaithersburg, MA, USA), 1000 units mL^−1 of penicillin/streptomycin (Gibco, Gaithersburg, MA, USA), and 2 mM of L-glutamine (Gibco, Gaithersburg, MA, USA). For adipocyte differentiation, 3T3-L1 cells at 100% confluent were incubated at 37 °C with a 5% CO2 stream for two days in a differentiation medium made of the complete DMEM plus 0.5 mM isobutyl methylxanthine (IBMX) (Sigma Aldrich, St. Louis, MO, USA), 1 µM of dexamethasone (Sigma Aldrich, St. Louis, MO, USA), and 5 µg mL^−1 of insulin (Sigma Aldrich, St. Louis, MO, USA). Then, the medium was replaced with an insulin medium made of the complete DMEM plus 5 µg mL^−1 of insulin, and cells were continuously incubated under the same conditions for another two days. The medium was replaced with the complete DMEM every two days to maintain adipocyte development. Cellular lipid droplets developed along the differentiation program could be observed under a light microscope (Nikon Ts2, Tokyo, Japan). Oil Red O staining was performed to determine the content of lipid droplets in differentiating 3T3-L1 cells. The adipocyte differentiation program as described previously was established, and cells were exposed to each tested compound at 5 µM for 48 h after obtaining 100% confluence. Cells exposed to 0.5% (v/v) DMSO and 20 µM of oxyresveratrol served as untreated vehicle and positive controls, respectively. Tested compounds were diluted in the differentiation medium before testing, in which the concentrations of DMSO were restricted to be lower than 0.5% (v/v). After the treatments, differentiating 3T3-L1 cells on day 8 of the differentiation program were fixed with 10% formalin and incubated with the Oil Red O staining solution (Sigma Aldrich, St. Louis, MO, USA) at an ambient temperature for 1 h. Cells were then washed thrice with distilled water and 60% (v/v) isopropanol (Sigma Aldrich, St. Louis, MO, USA) to remove the excess dye. Oil Red O-stained 3T3-L1 cells were observed using a light microscope (Nikon Ts2, Tokyo, Japan). The cellular Oil Red O content was extracted using absolute isopropanol and measured for absorbance at a 510 nm wavelength by the microplate reader. The percentage of Oil Red O-stained cells was calculated after normalization with the total cellular protein content determined by a BCA protein assay kit (Thermo Scientific, Rockford, CA, USA).

3T3L-1 cells = tested on: 3T3L-1 cells; set-up: method as in PMID 32571087; conditions: cited from earlier work
JNK = assay: Western blot, JNK phosphorylation ratio; type: cell-based, mouse; conditions: 48 h, vs untreated vehicle control
Method: (§2) The impacts of a tested compound on the expression and activation of proteins that are linked to cellular responses in the early phase of adipocyte differentiation were assessed using Western blot analysis. The list of proteins analyzed in this study included adipogenic regulators (i.e., PPARγ and C/EBPα) and the MAPK signaling pathways-mediated proteins (i.e., JNK, ERK, and p38). The expression or activation of each target protein was normalized with β-Actin as a reference cellular protein. The activation of JNK, ERK, and p38 was assessed using the phosphorylation ratio between those phosphorylated (i.e., p-ERK, p-JNK, and p-p38) and the sum of those phosphorylated and non-phosphorylated.
(§3) 3T3-L1 pre-adipocytes at 100% confluence were exposed for 48 h to a tested compound at non-cytotoxic concentrations prepared in the differentiation medium. Cells were then washed with PBS (pH 7.4) and used for protein extraction by incubation in an ice-cold radio-immunoprecipitation assay buffer (Thermo Scientific, Rockford, CA, USA) supplemented with the protease inhibitor cocktail (Roche Applied Science, Indianapolis, IN, USA) for 45 min. Derived cell lysates were centrifuged at 4 °C, 6440× g for 15 min, and the supernatant was collected. The BCA protein assay kit was conducted to quantify the total protein content in the supernatant. […]

PPARγ = assay: Western blot, PPARγ expression at early adipocyte differentiation; type: cell-based, mouse; conditions: 10 µM, 48 h in differentiation medium
Method: as §2, §3

p38 = assay: Western blot, p38 phosphorylation ratio; type: cell-based, mouse; conditions: 48 h, vs untreated vehicle control
Method: as §2, §3

C/EBPα = assay: Western blot, C/EBPα expression at early adipocyte differentiation; type: cell-based, mouse; conditions: 10 µM, 48 h in differentiation medium
Method: as §2, §3

ERK = assay: Western blot, ERK phosphorylation ratio; type: cell-based, mouse; conditions: 48 h, vs untreated vehicle control
Method: as §2, §3

[3] = tested on: HeLa cervical cancer cell line; set-up: method as in doi:10.1177/1934578X20908678; conditions: cited from earlier work
3T3-L1 cells [4] = assay: Nuclear staining with Hoechst 33342 / propidium iodide (cell death); type: cell-based; conditions: 20 µM, 48 h, Hoechst 33342/PI
Method: 3T3-L1 cell death after exposure to varying concentrations of the tested compounds was also determined by the nuclear staining technique. Hoechst 33342 (Sigma Aldrich, St. Louis, MO, USA) and propidium iodide (PI) (Sigma Aldrich, St. Louis, MO, USA) were used as staining dyes. After 48 h of treatment, the assay medium was removed from 3T3-L1 cells and replaced with PBS containing 2 µg mL^−1 of Hoechst 33342 and 1 µg mL^−1 of PI. Cells were stained for 30 min at 37 °C with a 5% CO2 stream and observed/photographed under a fluorescence microscope (Olympus IX51 with DP70, Tokyo, Japan). Bright cells with a disseminated nucleus under both blue and red filters were referred to as dead cells.

SMILES: COc1ccc(CCc2cc(OC)c3c(c2)O[C@@H](c2cc(OC)c(O)c(OC)c2)[C@H](CO)O3)cc1 [Compound 4, dendrocandin B]
- viability at 48 h, 20 µM [1]: 61.3 ± 1.1%
- cytotoxic effect (cell viability vs untreated vehicle control) (3T3-L1 pre-adipocytes): significant decrease in cell viability
- α-glucosidase activity inhibition (α-glucosidase): did not hamper
- pancreatic lipase activity inhibition (pancreatic lipase): did not hamper
- effect on cellular lipid storage (percentage of Oil Red O-stained cells) (3T3-L1 cells [2]): absence of its bioactivity to suppress lipid accumulation

SMILES: COc1cc([C@H]2OC[C@H]3[C@@H]2CO[C@@H]3c2cc(OC)c(O)c(OC)c2)cc(OC)c1O [Compound 6, syringaresinol]
- promotion of glucose uptake (3T3L-1 cells): no function to promote glucose uptake
- non-cytotoxic concentrations (3T3-L1 pre-adipocytes): ≤ 10 µM
- effect on cellular lipid storage (percentage of Oil Red O-stained cells) (3T3-L1 cells [2]): significantly decrease

SMILES: COc1ccc(CCc2cc(O)c(O)c(OC)c2)cc1 [Compound 3, 3,4-dihydroxy-5,4′-dimethoxybibenzyl]
- JNK phosphorylation (JNK; 2.5 µM): did not affect
- JNK phosphorylation (JNK; 10 µM): significantly suppressed
- PPARγ expression relative to β-Actin (PPARγ): maximum suppression
- non-cytotoxic concentrations (3T3-L1 pre-adipocytes): ≤ 10 µM
- p38 phosphorylation (p38; 2.5 µM): did not affect
- p38 phosphorylation (p38; 10 µM): significantly suppressed
- C/EBPα expression relative to β-Actin (C/EBPα): maximum suppression
- ERK phosphorylation (ERK; 2.5 µM): did not affect
- ERK phosphorylation (ERK; 10 µM): significantly suppressed
- effect on cellular lipid storage (percentage of Oil Red O-stained cells) (3T3-L1 cells [2]): significantly decrease
- IC50 (3T3-L1 cells [2]): 6.3 ± 0.1 µM
- IC50 fold lower than oxyresveratrol (3T3-L1 cells [2]; lipid accumulation IC50 ratio to positive control): approximately 3 fold
- cytotoxic effect on HeLa cells [3]: did not show a cytotoxic effect
- dead cells by nuclear staining (3T3-L1 cells [4]): some dead cells

SMILES: COc1ccc(CCc2cc(OC)c(O)c(OC)c2)cc1 [Compound 1, amoenylin]
- effect on cellular lipid storage (percentage of Oil Red O-stained cells) (3T3-L1 cells [2]): significantly decrease

SMILES: Oc1cc(O)cc(/C=C/c2ccc(O)cc2O)c1 [oxyresveratrol, reference compound]
- IC50 (3T3-L1 cells [2]): 20.2 ± 1.2 µM

SMILES: COc1ccc(CCc2cc(OC)c(O)c3c2C(Cc2ccc(OC)cc2)c2cc(O)c(O)c(OC)c2O3)cc1 (stereo not shown) [Compound 5, dendrofalconerol A]
- viability at 48 h, 20 µM [1]: 61.3 ± 1.1%
- cytotoxic effect (cell viability vs untreated vehicle control) (3T3-L1 pre-adipocytes): significant decrease in cell viability
- α-glucosidase activity inhibition (α-glucosidase): strong capability to inhibit
- pancreatic lipase activity inhibition (pancreatic lipase): strong capability to inhibit
- effect on cellular lipid storage (percentage of Oil Red O-stained cells) (3T3-L1 cells [2]): did not exhibit the inhibitory effect on lipid accumulation

SMILES: COC(=O)CCc1ccc(O)cc1 [Compound 2, methyl 3-(4-hydroxyphenyl) propionate]
- non-cytotoxic concentrations (3T3-L1 pre-adipocytes): ≤ 10 µM
- effect on cellular lipid storage (percentage of Oil Red O-stained cells) (3T3-L1 cells [2]): significantly decrease
